Data: US6875773B1, “Combination therapy for treatment of FIV infection” (priority 1998, dated 2005)

Key:
FIVPet = experiment: Anti-FIV activity (RT activity in supernatant) in feline T-cell line chronically infected with FIVPet (FL-4 cells); type: cell-based, Feline immunodeficiency virus; settings: nontoxic doses
Experimental: (§1) The antiviral activity of the drugs at noncytotoxic doses were evaluated in feline T-cell lines chronically infected with either FIVPet (subtype A strain) (panel A), or FIVBang (subtype B strain) (panel B). The RT data are presented as % control, whereby % control represents RT mean of triplicate treated cultures divided by RT mean of triplicate untreated cultures and multiplied by 100. The RT data on harvest days at 6, 9, and 12 are shown.
(§2) In the first set of in vitro studies, feline T-cell lines chronically infected with FIVPet, (FL-4 cells) or FIVBang, (FIVBang/FeT-J cells) at 2×10^5 cells/ml were treated for 3 weeks with a single drug or various combinations of AZT, 3TC, an FIV protease inhibitor (FIV-PI; Hoescht-Bayer HBY-793), and HIV protease inhibitors (HIV-PI) (FIGS. 1A and 1B). Saquinavir (SQV) and Indinavir (IDV) were used as the HIV-PIs. Culture supernatants were harvested and the cells were resuspended in fresh culture media containing appropriate drug(s) at […]. Viral replication was determined by measuring the levels of reverse transcriptase (RT) activity in the culture supernatants (Rey et al., 1984). Drug toxicity in these cultures were monitored by viability and absolute cell count analyses using trypan blue exclusion method (Mishell et al., 1980).
(§3) Single and combination drug doses which were determined to be nontoxic to the test cells were used in these studies.

FIVBang [1] = experiment: Anti-FIV activity (RT activity in supernatant) in feline T-cell line chronically infected with FIVBang (FIVBang/FeT-J cells); type: cell-based, Feline immunodeficiency virus; settings: nontoxic doses
Experimental: as §1, §2, §3

FIVBang [2] = experiment: Anti-FIV activity (RT activity) in primary cat PBMC infected with FIVBang; type: cell-based, Feline immunodeficiency virus; settings: for effect of adding the protease inhibitor to the AZT/3TC combination on antiviral activity: FIVBang; for FIV replication in PBMC (RT activity), result in words: FIVBang 100 TCID50, drug added immediately before inoculation, nontoxic doses
Experimental: Nucleoside analogue and PI doses were 0.1 μM in Experiment 1 (panel A) and 0.05 μM and 0.01 μM, respectively, in Experiment 2 (panel B).
(§4) As a means to simulate in vivo conditions, primary peripheral blood mononuclear cells (PBMC) from specific pathogen free (SPF) cats were next used as the indicator cells. Primary PBMC isolated by ficoll hypaque method were stimulated with concanavalin A for 3 days and cultured for an additional 2 weeks before their use in drug studies (Staszewski, 1995). Antiretroviral drug(s) were added to the PBMC cultures (1×10^6 cells/ml) immediately before FIVBang, (subtype B) or FIVUK-8(subtype A) inoculation of 100 50% tissue culture infectious dose (TCID50).

FIVUK-8 = experiment: Anti-FIV activity (RT activity) in primary cat PBMC infected with FIVUK-8; type: cell-based, Feline immunodeficiency virus; settings: for effect of adding the protease inhibitor to the AZT/3TC combination on antiviral activity: FIVUK-8; for FIV replication in PBMC (RT activity), result in words: FIVUK-8 100 TCID50, drug added immediately before inoculation, nontoxic doses
Experimental: Nucleoside analogue and P1 doses were 0.1 μM and 0.01-0.5 μM, respectively, in Experiment 1 (panel A) and 0.05 μM and 0.01-0.5 μM respectively, in Experiment 2 (panel B).
as §4

FIV = settings: background statement, no reference given; cited from earlier work
FIV protease = FIV protease (Feline immunodeficiency virus, UniProt P16088); settings: Dunn et al., 1994; Wlodawer et al., 1995; cited from earlier work
HIV protease = HIV protease (Human immunodeficiency virus type 1 group M subtype B, UniProt P04585); settings: Dunn et al., 1994; Wlodawer et al., 1995; cited from earlier work

Structure (SMILES)	anti-FIV activity (RT activity), result in words (FIVPet)	anti-FIV activity (RT activity), result in words (FIVBang [1])	effect of adding the protease inhibitor to the AZT/3TC combination on antiviral activity (FIVBang [2])	FIV replication in PBMC (RT activity), result in words (FIVBang [2])	effect of adding the protease inhibitor to the AZT/3TC combination on antiviral activity (FIVUK-8)	FIV replication in PBMC (RT activity), result in words (FIVUK-8)	FIV replication in PBMC in vitro (FIV)	inhibition of RT activity / FIV replication (FIVPet; treated for 3 weeks)	inhibition of RT activity / FIV replication (FIVBang [1]; treated for 3 weeks)	binding to FIV protease (FIV protease)	binding to HIV protease (HIV protease)
CC(C)(C)NC(=O)[C@@H]1C[C@@H]2CCCC[C@@H]2CN1C[C@@H](O)[C@H](Cc1ccccc1)NC(=O)[C@H](CC(N)=O)NC(=O)c1ccc2ccccc2n1 [SQV, Saquinavir]	neither SQV nor IDV alone had significant anti-FIV effect	neither SQV nor IDV alone had significant anti-FIV effect	did not enhance the antiviral activity of the AZT/3TC combination	lack of anti-FIV activity	did not enhance the antiviral activity of the AZT/3TC combination	lack of anti-FIV activity	do not inhibit FIV replication				
CC(C)(C)NC(=O)[C@@H]1CN(Cc2cccnc2)CCN1C[C@@H](O)C[C@@H](Cc1ccccc1)C(=O)N[C@H]1c2ccccc2C[C@H]1O [IDV, Indinavir]	neither SQV nor IDV alone had significant anti-FIV effect	neither SQV nor IDV alone had significant anti-FIV effect	did not enhance the antiviral activity of the AZT/3TC combination	lack of anti-FIV activity	did not enhance the antiviral activity of the AZT/3TC combination	lack of anti-FIV activity	do not inhibit FIV replication				
CC(C)[C@H](NC(=O)[C@H](Cc1cccc2ccccc12)CS(=O)(=O)C(C)(C)C)C(=O)N[C@@H](Cc1ccccc1)[C@H](O)[C@H](O)[C@H](Cc1ccccc1)NC(=O)[C@@H](NC(=O)[C@H](Cc1cccc2ccccc12)CS(=O)(=O)C(C)(C)C)C(C)C [FIV-PI]				inhibited FIV replication		inhibited FIV replication		70-80%	70-80%	efficiently binds	efficiently binds
Cc1c(O)cccc1C(=O)N[C@@H](CSc1ccccc1)[C@H](O)CN1C[C@H]2CCCC[C@H]2C[C@H]1C(=O)NC(C)(C)C [Nelfinavir]							do not inhibit FIV replication				
CC(C)c1nc(CN(C)C(=O)N[C@H](C(=O)N[C@@H](Cc2ccccc2)C[C@H](O)[C@H](Cc2ccccc2)NC(=O)OCc2cncs2)C(C)C)cs1 [Ritonavir]							do not inhibit FIV replication				
